Laboratory results as given in ChEMBL document CHEMBL1150892, “Kalkipyrone, a toxic gamma-pyrone from an assemblage of the marine cyanobacteria Lyngbya majuscula and Tolypothrix sp” (J Nat Prod, 1998).
≈ marks a conversion by molar mass, not a printed value.

Tests used:
[1] = Toxicity in Artemia salina; type: organism-based; settings: in vivo, read-out: LD50 (the source's name)
[2] = Ichthyotoxicity in gold fish after 1 hr; type: organism-based; settings: carassius auratus, in vivo; read-out: LD50

## COc1oc(C/C=C(\C)C/C=C/C(C)=C/[C@@H](C)O)c(C)c(=O)c1C [KALKIPYRONE]
[1]
  LC50: 1 µg/mL (≈ 3.01 µM)
[2]
  LC50 at 1 h: 2 µg/mL (≈ 6.02 µM)
